Assay results as given in patent publication US9896418B2, “Aryl ethers and uses thereof” (Peloton Therapeutics, Inc., priority 2013, dated 2018).

tested on: HIF-2α HIS TAG-PASB Domain; test: HIF-2α Scintillation Proximity Assay (SPA); assay type: binding
Description: The percent inhibition was determined and IC50 values were calculated using the Dotmatics system based on the following equation: % inhibition=[(high control−sample)/(high control−low control)]×100.

Row | Structure (SMILES) | IC50
1 | CS(=O)(=O)c1ccc(Oc2cc(F)cc(C#N)c2)c2c1[C@H](O)[C@H](F)[C@@H]2O [Compound 296, 3-fluoro-5-[(1S,2R,3R)-2-fluoro-1,3-dihydroxy-7-methylsulfonyl-indan-4-yl]oxy-benzonitrile] | 1.3 µM
2 | N#CN=S(=O)(c1ccc(Oc2cc(F)cc(C#N)c2)c2c1[C@H](O)[C@H](F)C2)C(F)F (stereo partly drawn) [Compound 297, N-(((2R,3S)-7-(3-cyano-5-fluorophenoxy)-2-fluoro-3-hydroxy-2,3-dihydro-1H-inden-4-yl)(difluoromethyl)(oxo)-λ^6-sulfanylidene)cyanamide] | 12.4 µM
3 | C[C@]1(F)Cc2c(Oc3cc(F)cc(C#N)c3)ccc(S(C)(=O)=O)c2[C@@H]1O [Compound 298, 3-fluoro-5-(((1S,2S)-2-fluoro-1-hydroxy-2-methyl-7-(methylsulfonyl)-2,3-dihydro-1H-inden-4-yl)oxy)benzonitrile] | 16.1 µM
4 | C[C@@]1(F)Cc2c(Oc3cc(F)cc(C#N)c3)ccc(S(C)(=O)=O)c2[C@@H]1O [Compound 300] | 2.03 µM
5 | CS(=O)(=O)c1ccc(Oc2cc(F)cc(C#N)c2)c2c1[C@H](O)C(F)(F)[C@H]2O [Compound 311, 3-[(1S,3S)-2,2-difluoro-1,3-dihydroxy-7-methylsulfonyl-indan-4-yl]oxy-5-fluoro-benzonitrile] | 8.7 µM
6 | CS(=O)(=O)c1ccc(Oc2cc(F)cc(C#N)c2)c2c1[C@H](O)C(F)(F)[C@@H]2O [Compound 312, 3-[(1S,3R)-2,2-difluoro-1,3-dihydroxy-7-methylsulfonyl-indan-4-yl]oxy-5-fluoro-benzonitrile] | 0.15 µM
7 | CS(=O)(=NC#N)c1ccc(Oc2cc(F)cc(C#N)c2)c2c1[C@H](O)C(F)(F)[C@H]2F (stereo partly drawn) [Compound 318, [[(1S,3S)-7-(3-cyano-5-fluoro-phenoxy)-1,2,2-trifluoro-3-hydroxy-indan-4-yl]-methyl-oxo-λ^6-sulfanylidene]cyanamide] | 2.38 µM
8 | CS(=O)(=O)c1ccc(Oc2cncc(Br)c2)c2c1C(=O)C(F)(F)C2 [Compound 323, 4-((5-Bromopyridin-3-yl)oxy)-2,2-difluoro-7-(methylsulfonyl)-2,3-dihydro-1H-inden-1-one] | 5.25 µM
9 | CS(=O)(=O)c1ccc(Oc2ccc(F)c(C#N)c2)c2c1[C@H](O)C(F)(F)[C@@H]2F [Compound 327, 2-Fluoro-5-(((1S,3R)-2,2,3-trifluoro-1-hydroxy-7-(methylsulfonyl)-2,3-dihydro-1H-inden-4-yl)oxy)benzonitrile] | 0.028 µM
10 | CS(=O)(=O)c1ccc(Oc2cncc(F)c2)c2c1[C@H](O)C(F)(F)[C@@H]2F [Compound 329, (1S,3R)-2,2,3-trifluoro-4-((5-fluoropyridin-3-yl)oxy)-7-(methylsulfonyl)-2,3-dihydro-1H-inden-1-ol] | < 0.005 µM
11 | CS(=O)(=O)c1ccc(Oc2cncc(F)c2)c2c1[C@H](O)C(F)(F)[C@H]2F [Compound 330, (1S,3S)-2,2,3-trifluoro-4-((5-fluoropyridin-3-yl)oxy)-7-(methylsulfonyl)-2,3-dihydro-1H-inden-1-ol] | 2.09 µM
12 | CS(=O)(=O)c1ccc(Oc2cncc(Cl)c2)c2c1[C@H](O)C(F)(F)[C@@H]2F [Compound 331, (1S,3R)-4-((5-chloropyridin-3-yl)oxy)-2,2,3-trifluoro-7-(methylsulfonyl)-2,3-dihydro-1H-inden-1-ol] | 0.007 µM
13 | CS(=O)(=O)c1ccc(Oc2cncc(Cl)c2)c2c1[C@H](O)C(F)(F)[C@H]2F [Compound 332, (1S,3S)-4-((5-chloropyridin-3-yl)oxy)-2,2,3-trifluoro-7-(methylsulfonyl)-2,3-dihydro-1H-inden-1-ol] | 2.33 µM
14 | N#Cc1cc(F)cc(Oc2ccc(S(N)(=O)=O)c3c2[C@@H](O)C(F)(F)[C@H]3O)c1 [Compound 337, (1R,3S)-7-(3-cyano-5-fluoro-phenoxy)-2,2-difluoro-1,3-dihydroxy-indane-4-sulfonamide] | 3.67 µM
15 | NS(=O)(=O)c1ccc(Oc2cncc(F)c2)c2c1[C@H](O)C(F)(F)[C@@H]2F [Compound 341, (1R,3S)-1,2,2-trifluoro-7-[(5-fluoro-3-pyridyl)oxy]-3-hydroxy-indane-4-sulfonamide] | 0.018 µM

Results, then the compound that gave them:

Row | IC50 | Structure (SMILES)
16 | 16.1 µM | N#CN=S(=O)(c1ccc(Oc2cc(F)cc(C#N)c2)c2c1[C@H](O)[C@H](F)C2)C(F)F (stereo partly drawn) [Compound 299, N-(((2R,3S)-7-(3-cyano-5-fluorophenoxy)-2-fluoro-3-hydroxy-2,3-dihydro-1H-inden-4-yl)(difluoromethyl)(oxo)-λ^6-sulfanylidene)cyanamide]
17 | 1.9 µM | C[C@@H]1Cc2c(Oc3cc(F)cc(C#N)c3)ccc(S(C)(=O)=O)c2[C@@H]1O [Compound 301, 3-fluoro-5-(((1R,2R)-1-hydroxy-2-methyl-7-(methylsulfonyl)-2,3-dihydro-1H-inden-4-yl)oxy)benzonitrile]
18 | 1.8 µM | CS(=O)(=O)c1ccc(Oc2cncc(C#N)c2)c2c1[C@H](O)[C@H](F)C2 [Compound 313, 5-(((1S,2R)-2-fluoro-1-hydroxy-7-(methylsulfonyl)-2,3-dihydro-1H-inden-4-yl)oxy)nicotinonitrile]
19 | 0.054 µM | CS(=O)(=O)c1ccc(Oc2cncc(Br)c2)c2c1[C@H](O)C(F)(F)C2 [Compound 324, (S)-4-((5-Bromopyridin-3-yl)oxy)-2,2-difluoro-7-(methylsulfonyl)-2,3-dihydro-1H-inden-1-ol]
20 | 0.18 µM | CS(=O)(=O)c1ccc(Oc2cncc(C#N)c2)c2c1[C@H](O)C(F)(F)C2 [Compound 325, (S)-5-((2,2-Difluoro-1-hydroxy-7-(methylsulfonyl)-2,3-dihydro-1H-inden-4-yl)oxy)nicotinonitrile]
21 | 1.28 µM | CS(=O)(=O)c1ccc(Oc2cncc(Br)c2)c2c1[C@H](O)[C@H](F)C2 [Compound 326, (1S,2R)-4-((5-Bromopyridin-3-yl)oxy)-2-fluoro-7-(methylsulfonyl)-2,3-dihydro-1H-inden-1-ol]
22 | 0.032 µM | CS(=O)(=O)c1ccc(Oc2cncc(Br)c2)c2c1[C@H](O)[C@H](F)[C@@H]2F [Compound 328, (1S,2S,3R)-4-((5-Bromopyridin-3-yl)oxy)-2,3-difluoro-7-(methylsulfonyl)-2,3-dihydro-1H-inden-1-ol]
23 | 0.074 µM | CS(=O)(=O)c1ccc(Oc2cncc(C#N)c2)c2c1[C@H](O)[C@H](F)[C@@H]2F [Compound 333, 5-(((1S,2S,3R)-2,3-difluoro-1-hydroxy-7-(methylsulfonyl)-2,3-dihydro-1H-inden-4-yl)oxy)nicotinonitrile]
24 | 0.073 µM | N#Cc1cc(F)cc(Oc2ccc(S(N)(=O)=O)c3c2C[C@@H](F)[C@H]3O)c1 [Compound 334, (2R,3S)-7-(3-cyano-5-fluoro-phenoxy)-2-fluoro-3-hydroxy-indane-4-sulfonamide]
25 | 0.024 µM | N#Cc1cncc(Oc2ccc(S(N)(=O)=O)c3c2[C@@H](F)C(F)(F)[C@H]3O)c1 [Compound 340, (1R,3S)-7-[(5-cyano-3-pyridyl)oxy]-1,2,2-trifluoro-3-hydroxy-indane-4-sulfonamide]
26 | 0.04 µM | CS(=O)(=O)c1ccc(Oc2cncc(C#N)c2)c2c1[C@H](O)C(F)(F)[C@@H]2F [Compound 342, 5-(((1S,3R)-2,2,3-trifluoro-1-hydroxy-7-(methylsulfonyl)-2,3-dihydro-1H-inden-4-yl)oxy)nicotinonitrile]
